Results from US6737383B1, “Herbicidal oxadiazolidines” (priority 1999, dated 2004).

Columns and labels:
surinam grass = assay: Test B pre/postemergence surinam grass; assay type: in vivo, Brachiaria decumbens
How it was run: (§1)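 Herbicidal effect was estimated by eye on a ten-point control scale after plants spent twelve to sixteen days in a greenhouse following soil or foliar treatment. Foliar sprays targeted plants at one to four leaves; all doses were formulated in a non-phytotoxic solvent with surfactant.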

blackgrass = assay: Test B pre/postemergence blackgrass; assay type: in vivo, Alopecurus myosuroides
How it was run: as §1

bedstraw = assay: Test B pre/postemergence bedstraw; assay type: in vivo, Galium aparine
How it was run: as §1

corn = assay: Test B pre/postemergence corn; assay type: in vivo, Zea mays
How it was run: as §1

velvetleaf = assay: Test B pre/postemergence velvetleaf; assay type: in vivo, Abutilon theophrasti
How it was run: as §1

soybean = assay: Test B pre/postemergence soybean; assay type: in vivo, Glycine max
How it was run: as §1

bamyardgrass = assay: Test B flood test barnyardgrass; assay type: in vivo, Echinochloa crus-galli
How it was run: (§2)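 Read-out is a visual response score from 0 (no effect) to 10 (complete control), assigned by comparison with untreated controls. Treatment was applied at the 2-leaf stage, and plants stayed in the greenhouse for twelve to sixteen days before scoring.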

duck salad = assay: Test B flood test duck salad; assay type: in vivo, Heteranthera limosa
How it was run: as §2

giant foxtail = assay: Test B pre/postemergence giant foxtail; assay type: in vivo, Setaria faberii
How it was run: as §1

sugar beet = assay: Test B pre/postemergence sugar beet; assay type: in vivo, Beta vulgaris
How it was run: as §1

morningglory = assay: Test B pre/postemergence morningglory; assay type: in vivo, Ipomoea hederacea
How it was run: as §1

purple nutsedge = assay: Test B pre/postemergence purple nutsedge; assay type: in vivo, Cyperus rotundus
How it was run: as §1

pigweed = assay: Test B pre/postemergence pigweed; assay type: in vivo, Amaranthus retroflexus
How it was run: as §1

rice = assay: Test B flood test rice; assay type: in vivo, Oryza sativa
How it was run: as §2

rape = assay: Test B pre/postemergence rape; assay type: in vivo, Brassica napus
How it was run: as §1

smallflower flatsedge = assay: Test B flood test smallflower flatsedge; assay type: in vivo, Cyperus difformis
How it was run: as §2

[1] = Preemergence, Rate 62 g/ha, scale of 0 to 10 where 0 is no effect and 10 is complete control
[2] = Preemergence, Rate 250 g/ha, scale of 0 to 10 where 0 is no effect and 10 is complete control
[3] = Preemergence, Rate 500 g/ha, scale of 0 to 10 where 0 is no effect and 10 is complete control
[4] = Rate 62 g/ha, Postemergence, scale 0 to 10 (0 no effect, 10 complete control)
[5] = Rate 125 g/ha, Postemergence, scale of 0 to 10 where 0 is no effect and 10 is complete control
[6] = Rate 250 g/ha, Postemergence, scale of 0 to 10 where 0 is no effect and 10 is complete control
[7] = Rate 500 g/ha, Postemergence, scale 0 to 10, 0 no effect, 10 complete control
[8] = Rate 62 g/ha, headed Pre-emergence (flood test species), scale 0 to 10 (0 no effect, 10 complete control)
[9] = Rate 125 g/ha, Pre-emergence, flood test species, scale 0 to 10 where 0 is no effect and 10 is complete control
[10] = Rate 250 g/ha, Pre-emergence, flood-test species, scale 0 to 10, 0 is no effect, 10 is complete control
[11] = Rate 500 g/ha, Pre-emergence, flood test species, scale 0 to 10 (0 no effect, 10 complete control)

CC(C)N(C(=O)n1oc(=O)n(C2CCCCO2)c1=O)c1ccc(F)cc1 (centres unmarked) [Compound 311]
2: Bedstraw plant response rating (bedstraw; [7]) | Soybean plant response rating (soybean; [4]) | Soybean plant response rating (soybean; [5])
8: Plant response rating, Morningglory (morningglory; [6])
0: B. signalgrass plant response rating (surinam grass; [1]) | B. signalgrass plant response rating (0 to 10 scale, 0 is no effect, 10 is complete control) (surinam grass; Preemergence, Rate 125 g/ha) | B. signalgrass plant response rating (surinam grass; [2]) | B. signalgrass plant response rating (surinam grass; [3]) | B. signalgrass plant response rating (surinam grass; [4]) | B. signalgrass plant response rating (surinam grass; [5]) | Plant response rating, B. signalgrass (surinam grass; [6]) | B. signalgrass plant response rating (surinam grass; [7]) | Blackgrass plant response rating (blackgrass; [1]) | Blackgrass plant response rating (0 to 10 scale) (blackgrass; Preemergence, Rate 125 g/ha) | Blackgrass plant response rating (blackgrass; [2]) | Blackgrass plant response rating (blackgrass; [3]) | Blackgrass plant response rating (blackgrass; [4]) | Blackgrass plant response rating (blackgrass; [5]) | Plant response rating, Blackgrass (blackgrass; [6]) | Blackgrass plant response rating (blackgrass; [7]) | Bedstraw plant response rating (bedstraw; [1]) | Bedstraw plant response rating (0 to 10 scale) (bedstraw; Preemergence, Rate 125 g/ha) | Bedstraw plant response rating (bedstraw; [2]) | Bedstraw plant response rating (bedstraw; [3]) | Bedstraw plant response rating (bedstraw; [4]) | Bedstraw plant response rating (bedstraw; [5]) | Plant response rating, Bedstraw (bedstraw; [6]) | Corn plant response rating (corn; [1]) | Corn plant response rating (0 to 10 scale) (corn; Preemergence, Rate 125 g/ha) | Corn plant response rating (corn; [2]) | Corn plant response rating (corn; [3]) | Corn plant response rating (corn; [4]) | Corn plant response rating (corn; [5]) | Plant response rating, Corn (corn; [6]) | Corn plant response rating (corn; [7]) | Velvetleaf plant response rating (velvetleaf; [1]) | Velvetleaf plant response rating (0 to 10 scale) (velvetleaf; Preemergence, Rate 125 g/ha) | Velvetleaf plant response rating (velvetleaf; [2]) | Velvetleaf plant response rating (velvetleaf; [3]) | Velvetleaf plant response rating (velvetleaf; [4]) | Velvetleaf plant response rating (velvetleaf; [5]) | Plant response rating, Velvetleaf (velvetleaf; [6]) | Soybean plant response rating (soybean; [1]) | Soybean plant response rating (0 to 10 scale) (soybean; Preemergence, Rate 125 g/ha) | Soybean plant response rating (soybean; [2]) | Soybean plant response rating (soybean; [3]) | Barnyardgrass plant response rating (bamyardgrass; [8]) | Barnyardgrass plant response rating (bamyardgrass; [9]) | Barnyardgrass plant response rating (bamyardgrass; [10]) | Barnyardgrass plant response rating (bamyardgrass; [11]) | Ducksalad plant response rating (duck salad; [8]) | Ducksalad plant response rating (duck salad; [9]) | Ducksalad plant response rating (duck salad; [10]) | Ducksalad plant response rating (duck salad; [11]) | Giant foxtail plant response rating (giant foxtail; [1]) | Giant foxtail plant response rating (0 to 10 scale) (giant foxtail; Preemergence, Rate 125 g/ha) | Giant foxtail plant response rating (giant foxtail; [2]) | Giant foxtail plant response rating (giant foxtail; [3]) | Giant foxtail plant response rating (giant foxtail; [4]) | Giant foxtail plant response rating (giant foxtail; [5]) | Plant response rating, Giant foxtail (giant foxtail; [6]) | Sugarbeets plant response rating (sugar beet; [1]) | Sugarbeets plant response rating (0 to 10 scale) (sugar beet; Preemergence, Rate 125 g/ha) | Sugarbeets plant response rating (sugar beet; [2]) | Sugarbeets plant response rating (sugar beet; [3]) | Sugarbeets plant response rating (sugar beet; [4]) | Sugarbeets plant response rating (sugar beet; [5]) | Plant response rating, Sugarbeets (sugar beet; [6]) | Morningglory plant response rating (morningglory; [1]) | Morningglory plant response rating (0 to 10 scale) (morningglory; Preemergence, Rate 125 g/ha) | Morningglory plant response rating (morningglory; [2]) | Morningglory plant response rating (morningglory; [3]) | Morningglory plant response rating (morningglory; [4]) | Nutsedge plant response rating (purple nutsedge; [1]) | Nutsedge plant response rating (0 to 10 scale) (purple nutsedge; Preemergence, Rate 125 g/ha) | Nutsedge plant response rating (purple nutsedge; [2]) | Nutsedge plant response rating (purple nutsedge; [3]) | Nutsedge plant response rating (purple nutsedge; [4]) | Nutsedge plant response rating (purple nutsedge; [5]) | Plant response rating, Nutsedge (purple nutsedge; [6]) | Redroot pigweed plant response rating (pigweed; [1]) | Redroot pigweed plant response rating (0 to 10 scale) (pigweed; Preemergence, Rate 125 g/ha) | Redroot pigweed plant response rating (pigweed; [2]) | Redroot pigweed plant response rating (pigweed; [3]) | Redroot pigweed plant response rating (pigweed; [4]) | Redroot pigweed plant response rating (pigweed; [5]) | Plant response rating, Redroot pigweed (pigweed; [6]) | Rice plant response rating (rice; [8]) | Rice plant response rating (rice; [9]) | Rice plant response rating (rice; [10]) | Rice plant response rating (rice; [11]) | Rape plant response rating (rape; [1]) | Rape plant response rating (0 to 10 scale) (rape; Preemergence, Rate 125 g/ha) | Rape plant response rating (rape; [2]) | Rape plant response rating (rape; [3]) | Rape plant response rating (rape; [4]) | Rape plant response rating (rape; [5]) | Plant response rating, Rape (rape; [6]) | S. Flatsedge plant response rating (smallflower flatsedge; [8]) | S. Flatsedge plant response rating (smallflower flatsedge; [9]) | S. Flatsedge plant response rating (smallflower flatsedge; [10]) | S. Flatsedge plant response rating (smallflower flatsedge; [11])
4: Morningglory plant response rating (morningglory; [5])
3: Plant response rating, Soybean (soybean; [6])
